In data set [1] the test system is NHDF cells (Normal Human Dermal Fibroblasts). The experiment in a line: MTT cell proliferation assay, NHDF. To be noted: 72 h; for MTT screening, cell proliferation: 30 µM, average ± SD; for IC50: Homo sapiens, MTT. Type of data set: cell-based. On the procedure: (§1) Cell lines, namely LNCaP, PC-3, T47-D and NHDF were obtained from American Type Culture Collection (ATCC; Manassas, VA, USA) and cultured in 75 cm^2 culture flasks at 37 °C in a humidified air incubator with 5% CO2. LNCaP, PC-3 and T47-D cells, which were used in passages 20th to 27th, 25th to 29th and 10th to 15th, respectively, were cultured in RPMI 1640 medium (Sigma-Aldrich, Inc., St. Louis, MO, USA) with 10% fetal bovine serum (FBS; Sigma-Aldrich, Inc. St. Louis, MO, USA) and 1% of the antibiotic mixture of 10,000 IU/mL penicillin G and […] of streptomycin (Sp, Sigma-Aldrich, Inc. St. Louis, MO, USA). Finally, NHDF cells (Normal Human Dermal Fibroblasts) were cultured in RPMI 1640 medium supplemented with 10% FBS, 2 mM L-glutamine, 10 mM HEPES, 1 mM sodium pyruvate and 1% of an antibiotic/antimycotic mixture (10,000 U/mL penicillin G, 100 mg/mL streptomycin and 25 µg/mL amphotericin B) (Ab; Sigma-Aldrich, Inc. St. Louis, MO, USA), and these cells were used in passages 10 to 12. For all cell types, the medium was renewed every 2–3 days until cells reach nearly the confluence state. Then, they were detached gently by trypsinization (trypsin-EDTA solution: 0.125 g/L of trypsin and 0.02 g/L of EDTA).
(§2) All the stock solutions were prepared by dissolving compounds in dimethyl sulfoxide (DMSO; Sigma-Aldrich, Inc., St. Louis, MO, USA) at 10 mM and stored at 4 °C. From these solutions, the several diluted compounds solutions in different concentrations were freshly prepared in a complete culture medium before each experiment.
(§3) As previously referred, cells were trypsinized after reaching a near confluence state and counted by the trypan blue exclusion assay in a Neubauer chamber. Then, 100 µL of cell suspension/well with an initial density of 2 × 10^4 cells/mL were seeded in 96-well culture plates (Nunc, Apogent, Denmark) and left to adhere for 48 h. After cells adherence, the medium was replaced by the distinct solutions of the compounds in the study (30 µM for preliminary studies and 0.01, 0.1, 1, 10, 50 and 100 µM for concentration–response studies) in the appropriate medium for approximately 72 h. 5-FU and finasteride were used as positive controls and untreated cells were used as the negative control. Each experiment was performed in quadruplicate and independently performed at least two times. The in vitro antiproliferative effects were evaluated by the MTT assay (Sigma-Aldrich, Inc. St. Louis, USA). After the incubation period, the medium was removed and 100 µL of phosphate buffer saline (NaCl 137 mM, KCl 2.7 mM, Na2HPO4 10 mM and KH2PO4 1.8 mM in deionized water and pH adjusted to 7.4) were used to wash the cells. Then, 100 µL of the MTT solution (5 mg/mL) was prepared in the appropriate serum-free medium and was added to each well, followed by incubation for 4 h at 37 °C. Hereafter, the MTT containing medium was removed and the formazan crystals were dissolved in DMSO. Then the absorbance was measured at 570 nm using a microplate spectrophotometer BIO-RAD xMarkTM. Cell viability values were expressed as percentages relative to the absorbance determined in the cells used as negative controls.
(§4) The data are expressed as a mean ± standard deviation (SD) and differences between groups were considered statistically significant when p < 0.05. The IC50 values were determined through sigmoidal fitting analysis with variable slope and considering a 95% confidence level. All data shown are representative of at least two independent experiments.
On the technique in general: Formazan colour is commonly taken as a measure of viable cells.

The subject of a further data set is LNCaP cells. Kind of data set: MTT cell proliferation assay, LNCaP. The conditions noted are these: 72 h; for MTT screening, cell proliferation: 30 µM, average ± SD; for IC50: Homo sapiens, MTT. Type of data set: cell-based, human. On the procedure: as §1, §2, §3, §4
The next data set has as its system PC-3 cells. The experiment in a line: MTT cell proliferation assay, PC-3. Format: cell-based, human. The conditions noted are these: for MTT screening, cell proliferation: PC-3, 30 µM, 72 h, average ± SD; for IC50: Homo sapiens, PC-3, 72 h, MTT. On the procedure:
as §1, §2, §3, §4

Data set [2] concerns T47-D cells. The experiment in a line: MTT cell proliferation assay, T47-D. Type of data set: cell-based, human. To be noted: 72 h; for MTT screening, cell proliferation: 30 µM, average ± SD; for IC50: Homo sapiens, T47D, MTT. On the procedure: as §1, §2, §3, §4
In data set [3] the test system is T47-D cells. The experiment in a line: Cell nuclear morphology and distribution analysis with ImageJ. Type of data set: cell-based, human. The conditions noted are these: 20 µM, 48 and 72 h. From the text: The nuclear measurements were achieved by converting 16-bit photomicrographs of Hoechst 3342-stained nuclei, in different conditions, into 8-bit images and then these images were autothresholded to binary photos using the default method “Make binary” function of ImageJ v 1.49. Cell nuclei that are touching were separated and fragments were discarded based on the area through the “Analyze Particle” function. This function also provides several information pretended as nuclear area, circumference and form factor [33]. In addition, the “Nearest Neighbor Distance” was determined. This function allows measuring the distance between each cell nucleus and the nearest ones.

This is an account of results in paper PMC9501232, “Novel 4-Azapregnene Derivatives as Potential Anticancer Agents: Synthesis, Antiproliferative Activity and Molecular Docking Studies” (Molecules, 2022).

Consider `Cc1ccc(/C=C/C(=O)[C@H]2CC[C@H]3[C@@H]4CC=C5NC(=O)CC[C@]5(C)[C@H]4CC[C@]23C)o1` [Compound 3f, 21E-[(5-Methylfuran-2-yl)methylidene]-4-azapregn-5-ene-3,20-dione], for which the melting point (usually the temperature, or range, at which the solid turns liquid) was in the range of 200 to 203 °C. For the same compound, the “MTT screening, cell proliferation” value in data set [1] is recorded as 89.7 ± 9.7 percentage of negative control. Also, the “MTT screening, cell proliferation” value in the data set with LNCaP cells is 88.9 ± 17.7 percentage of negative control. Besides, the “MTT screening, cell proliferation” value in the data set with PC-3 cells is 108.1 ± 7.8 percentage of negative control. Also, the “MTT screening, cell proliferation” value in the data set on T47-D cells [2] is 104.3 ± 11.3 percentage of negative control.

As for `COc1ccc(/C=C/C(=O)[C@H]2CC[C@H]3[C@@H]4CC=C5NC(=O)CC[C@]5(C)[C@H]4CC[C@]23C)cc1` [Compound 3d, 21E-[(4-Methoxyphenyl)methylidene]-4-azapregn-5-ene-3,20-dione], the melting point lay within 280 to 282 °C. In addition, the “MTT screening, cell proliferation” value in data set [1] was 52.4 ± 2.8 percentage of negative control. The “MTT screening, cell proliferation” value with LNCaP cells was 88.0 ± 15.5 percentage of negative control. Besides, in the data set with PC-3 cells, the “MTT screening, cell proliferation” value was 58.2 ± 6.0 percentage of negative control. Moreover, the “MTT screening, cell proliferation” value in the data set with T47-D cells [2] is 73.9 ± 14.6 percentage of negative control.

As for `Cc1ccc(/C=C/C(=O)[C@H]2CC[C@H]3[C@@H]4CC=C5NC(=O)CC[C@]5(C)[C@H]4CC[C@]23C)cc1` [Compound 3b, 21E-[(4-Methylphenyl)methylidene]-4-azapregn-5-ene-3,20-dione], the melting point fell in the range of 191 to 193 °C. Moreover, the “MTT screening, cell proliferation” value in data set [1] was 83.0 ± 3.6 percentage of negative control. Besides, in the data set with LNCaP cells, the “MTT screening, cell proliferation” value is listed as 62.7 ± 9.0 percentage of negative control. Further, in the data set on PC-3 cells, the midpoint of inhibition, the IC50, lay at 25.9 µM and the “MTT screening, cell proliferation” value was 25.9 ± 3.8 percentage of negative control. Further, in the data set with T47-D cells [2], the “MTT screening, cell proliferation” value is reported as 45.0 ± 11.6 percentage of negative control and the IC50 (in general, the concentration that inhibits the measured activity by half) stood at 45 µM.

For the compound “4-Azapregn-4-ene-3,20-dione [Compound 2]”, the “MTT screening, cell proliferation” value is recorded as 106.1 ± 6.0 percentage of negative control in data set [1], 58.3 ± 13.6 percentage of negative control in the data set with LNCaP cells, 96.7 ± 9.3 percentage of negative control with PC-3 cells and 137.0 ± 18.0 percentage of negative control with T47-D cells [2].

With `C[C@]12CC[C@H]3[C@@H](CCC4=CC(=O)CC[C@@]43C)[C@@H]1CC[C@@H]2O` [Testosterone, reference compound], the “MTT screening, cell proliferation” value in data set [1] is given as 94.2 ± 7.3 percentage of negative control; with LNCaP cells it was 99.2 ± 4.2 percentage of negative control; with PC-3 cells, 89.5 ± 9.0 percentage of negative control; in the data set on T47-D cells [2], 72.0 ± 4.0 percentage of negative control.

Regarding `C[C@]12CC[C@H]3[C@@H](CC=C4NC(=O)CC[C@@]43C)[C@@H]1CC[C@@H]2C(=O)/C=C/c1ccc([N+](=O)[O-])cc1` [Compound 3c, 21E-[(4-Nitrophenyl)methylidene]-4-azapregn-5-ene-3,20-dione], the “MTT screening, cell proliferation” value in data set [1] is 20.3 ± 2.8 percentage of negative control; in the data set on LNCaP cells it was 5.2 ± 2.6 percentage of negative control; with PC-3 cells, 0.7 ± 0.5 percentage of negative control; in the data set on T47-D cells [2], 6.7 ± 4.6 percentage of negative control. The IC50 stood at 6.94 µM in data set [1], 16.3 µM in the data set with LNCaP cells, 3.29 µM with PC-3 cells and 6.56 µM with T47-D cells [2].

With `C[C@]12CCC(=O)C[C@@H]1CC[C@@H]1[C@@H]2CC[C@]2(C)[C@@H](O)CC[C@@H]12` [DHT, 5α-dihydrotestosterone, reference compound], the “MTT screening, cell proliferation” value is 100.5 ± 7.4 percentage of negative control in data set [1], 138.9 ± 3.9 percentage of negative control in the data set on LNCaP cells, 93.1 ± 4.9 percentage of negative control in the data set on PC-3 cells and 90.7 ± 9.4 percentage of negative control in the data set on T47-D cells [2].

For the compound `CC(=O)[C@H]1CC[C@H]2[C@@H]3CCC4=CC(=O)CC[C@]4(C)[C@H]3CC[C@]12C` [Progesterone, reference compound], the “MTT screening, cell proliferation” value is on record as 96.6 ± 14.3 percentage of negative control in data set [1], 64.3 ± 16.1 percentage of negative control with LNCaP cells, 42.9 ± 5.4 percentage of negative control in the data set with PC-3 cells and 62.9 ± 6.8 percentage of negative control in the data set with T47-D cells [2].

As for `C[C@]12CC[C@H]3[C@@H](CC=C4NC(=O)CC[C@@]43C)[C@@H]1CC[C@@H]2C(=O)/C=C/c1ccccc1` [Compound 3a, 21E-(Phenylmethylidene)-4-azapregn-5-ene-3,20-dione], the “MTT screening, cell proliferation” value in data set [1] is given as 25.1 ± 7.4 percentage of negative control; in the data set on LNCaP cells, 6.5 ± 5.3 percentage of negative control; in the data set on PC-3 cells, 1.4 ± 1.0 percentage of negative control; in the data set on T47-D cells [2], 6.5 ± 5.4 percentage of negative control. Besides, the IC50 in data set [1] turned out to be 64 µM; in the data set with LNCaP cells, 27.5 µM; in the data set on PC-3 cells, 12.6 µM; in the data set on T47-D cells [2] it was 16.9 µM.

Compound `CC(=O)[C@H]1CCC2C3CCC(=O)[C@](C)(CCC(=O)O)C3CC[C@@]21C` (some centres unmarked) [Compound 1] gave a melting point of 168 to 169 °C. In addition, in data set [1], the “MTT screening, cell proliferation” value is listed as 100.0 ± 6.0 percentage of negative control. Moreover, in the data set with LNCaP cells, the “MTT screening, cell proliferation” value is recorded as 96.4 ± 16.1 percentage of negative control. In the data set on PC-3 cells, the “MTT screening, cell proliferation” value was 102.1 ± 5.2 percentage of negative control. Also, the “MTT screening, cell proliferation” value in the data set on T47-D cells [2] is 130.8 ± 20.8 percentage of negative control.

Compound `C[C@]12CC[C@H]3[C@@H](CC=C4NC(=O)CC[C@@]43C)[C@@H]1CC[C@@H]2C(=O)/C=C/c1ccco1` [Compound 3e, 21E-[(Furan-2-yl)methylidene]-4-azapregn-5-ene-3,20-dione] showed a melting point of 260 to 261 °C. In addition, in data set [1], the “MTT screening, cell proliferation” value is listed as 111.6 ± 13.9 percentage of negative control. The “MTT screening, cell proliferation” value with LNCaP cells is given as 85.3 ± 6.7 percentage of negative control. The “MTT screening, cell proliferation” value in the data set on PC-3 cells was 82.7 ± 6.5 percentage of negative control. Besides, in the data set on T47-D cells [2], the “MTT screening, cell proliferation” value is listed as 92.6 ± 7.4 percentage of negative control.

On to `O=c1[nH]cc(F)c(=O)[nH]1` [Compound 5-FU, 5-fluorouracil, reference compound], for which the “MTT screening, cell proliferation” value in data set [1] is 33.6 ± 8.2 percentage of negative control; in the data set on LNCaP cells it was 18.6 ± 2.6 percentage of negative control; in the data set with PC-3 cells it was 10.8 ± 3.1 percentage of negative control; in the data set on T47-D cells [2], 42.3 ± 6.4 percentage of negative control. In addition, the IC50 in data set [1] was 29.4 µM; with LNCaP cells, 1.5 µM; in the data set on PC-3 cells it was 3.3 µM; with T47-D cells [2], 0.7 µM. Besides, the “Nearest neighbor distance (NND) of cell nuclei” value in the data set with T47-D cells [3] is recorded as “different distances”.
